“And” between values parts separate entries of the source, which are not always exact repeats. Equal values may be shown once.
How the values were obtained:
[1] = human, in vivo
Source text: The number and percentage of subjects who experienced one or more AEs were summarized by dose level group, relationship to study drug, and severity. AEs were coded using Medical Dictionary for Regulatory Activities (MedDRA) terminology. Clinical laboratory parameters were summarized using descriptive statistics, by post-dosing shifts relative to baseline, and data listings of clinically significant abnormalities. Vital signs and ECG data were summarized by changes from baseline values at each dose level using descriptive statistics. Pharmacokinetic parameters, including AUC (0-8 h), Cmax, Cmin, and Tmax was estimated. Comparisons across dose levels were made to assess proportionality. Overall survival was calculated using the Kaplan-Meier method.

[2] = test system: patients with advanced hepatocellular carcinoma (HCC); experiment: Phase 1-2 dose-escalation study of oral CF102: overall survival and clinical activity; assay type: in vivo, human; conditions: for Survival from start of CF102: individual subjects
Source text: All patients were over the age of 18 with incurable advanced, refractory, or metastatic hepatocellular carcinoma (HCC), documented by cytology and/or histology for patients without underlying cirrhosis or according to the American Association for the Study of Liver Diseases Practice Guideline algorithm for patients with underlying cirrhosis. All patients had measurable disease, according to Response Evaluation Criteria in Solid Tumors (RECIST); […] The trial employed a conventional “three plus three” design. […] At the first stage nine patients were enrolled for the dose escalation phase and then additional nine were enrolled for the dose confirmation phase. Furthermore, nine patients have undergone intra-subject dose escalation per protocol. Subjects returned for a follow-up visit 28 days after completion of the last dose of study drug. […] Safety data analysis was conducted on all subjects who received at least one dose of CF102. The number and percentage of subjects who experienced one or more AEs were summarized by dose level group, relationship to study drug, and severity. AEs were coded using Medical Dictionary for Regulatory Activities (MedDRA) terminology. Clinical laboratory parameters were summarized using descriptive statistics, by post-dosing shifts relative to baseline, and data listings of clinically significant abnormalities. Vital signs and ECG data were summarized by changes from baseline values at each dose level using descriptive statistics. Pharmacokinetic parameters, including AUC (0-8 h), Cmax, Cmin, and Tmax was estimated. Comparisons across dose levels were made to assess proportionality. Overall survival was calculated using the Kaplan-Meier method.

[3] = test system: patients with hepatocellular carcinoma (HCC); experiment: Phase 1-2 study of oral CF102: liver function parameters over 6 months; assay type: in vivo, human; conditions: serum, over a 6 months period
Source text: The trial employed a conventional “three plus three” design. […] At the first stage nine patients were enrolled for the dose escalation phase and then additional nine were enrolled for the dose confirmation phase. Furthermore, nine patients have undergone intra-subject dose escalation per protocol. Subjects returned for a follow-up visit 28 days after completion of the last dose of study drug.

## CNC(=O)[C@H]1O[C@@H](n2cnc3c(NCc4cccc(I)c4)nc(Cl)nc32)[C@H](O)[C@@H]1O [CF102, 2-Chloro-N^6-(3-iodobenzyl)-adenosine-5′-N-methyluronamide]
[1]
  Plasma levels: > 0.66 nM
[2]; 12 sorafenib failures
  Overall survival, range: 3.5-13.2 months
[2]; 12 sorafenib failures, CF102 as second line therapy
  Median overall survival (OS): 7 months and 7.0 months
[2]; all 18 subjects
  Median overall survival (OS): 7.82 months and 7.8 months
  Overall survival, range: 3.5-27.3 months
[2]; five Child-Pugh B patients
  Median overall survival (OS): 8.1 months
  Overall survival, range: 7.0-13.2 months
[2]; starting dose 1 mg BID oral
  Survival from start of CF102: 7.1 months and 5.6 months and 13.2** months and 7.0 months and 8.2 months and 27.3* months
[2]; starting dose 5 mg BID oral
  Survival from start of CF102: 4.1 months and 7.1 months and 10.6 months and 10.7 months and 3.5 months and 4.2 months
[2]; starting dose 25 mg BID oral
  Survival from start of CF102: 8.3 months and 8.1 months and 7.6 months and 7.0 months and 12.6 months and 8.4 months
[2]; one subject
  Period of Stable Disease (SD) by RECIST criteria: 10 months
[2]; one subject, continuing on drug
  Time receiving CF102: ≥ 41 months
[3]
  Liver function parameters: ALT, AST, albumin, bilirubin, prothrombin time, ALK phosphatase, α-fetoprotein: remained stable

From patent US20150018299A1, “TREATMENT OF LIVER CONDITIONS” (CAN-FITE BIOPHARMA LTD., priority 2012, published 2015)
